From US11787762B2, “Tetralin and tetrahydroquinoline compounds as inhibitors of HIF-2alpha” (ARCUS BIOSCIENCES, INC., priority 2020, dated 2023)

Assays:
[1] = biological target: T1, Histidine tagged HIF-2α protein containing PAS-B domain (240-350) (Homo sapiens, UniProt Q99814); assay: HIF-2α Scintillation Proximity Assay (SPA) binding assay; settings: Table 2; 50 nM HIF-2α protein, 25 nM 3H-tracer
T1 construct: HIF-2α protein containing PAS-B domain (240-350); made in house
Method: HIF-2α Scintillation Proximity Assay (SPA) Binding Assay:
Tritium labeled compound N-(3-chlorophenyl)-4-nitro-2,1,3-benzoxadiazol-5-amine was obtained from American Radiolabeled Chemicals Inc. and copper chelate PVT SPA beads were from PerkinElmer (Cat #RPNQ0095). Histidine tagged HIF-2α protein containing PAS-B domain (240-350) was prepared and purified in house.
Compounds solubilized in DMSO were dispensed into a white 384-well polystyrene non-binding flat clear bottom plate (Greiner Bio-One, Cat #781903) using an HP D300 dispenser. Ten microliters of HIS-tagged HIF-2α protein in buffer (25 mM Tris-HCl, pH 7.4, 150 mM NaCl, 0.15% BSA and 0.001% Tween 20) was added to the compound wells and allowed to incubate for 1 hour at room temperature. Ten microliters of SPA bead mix were added to the wells and incubated for an additional 45 minutes, followed by 10 ul of ^3H-tracer solution. Final assay conditions comprised 50 nM HIF-2α protein, 25 nM radiolabeled tracer and 3 ug beads per well with compounds in 2% DMSO. The plate was read using a MicroBeta Microplate Counter (PerkinElmer) for luminescence detection. The IC50 values of the test compounds were determined from compound dose response curves fitted using a standard four parameter fit equation and are reported in Table 1, Table 2, and Table 3.

[2] = biological target: T2, HIF-2α (Homo sapiens, UniProt Q99814); assay: HIF-2α luciferase reporter assay in HIF-Luc-786-O cells; format: cell-based
T2 construct: host or cells: 786-O cells stably transduced with Cignal Lenti HIF Luc Reporter (only the reporter was introduced, not HIF-2α)
T2 sequence (Q99814 whole entry): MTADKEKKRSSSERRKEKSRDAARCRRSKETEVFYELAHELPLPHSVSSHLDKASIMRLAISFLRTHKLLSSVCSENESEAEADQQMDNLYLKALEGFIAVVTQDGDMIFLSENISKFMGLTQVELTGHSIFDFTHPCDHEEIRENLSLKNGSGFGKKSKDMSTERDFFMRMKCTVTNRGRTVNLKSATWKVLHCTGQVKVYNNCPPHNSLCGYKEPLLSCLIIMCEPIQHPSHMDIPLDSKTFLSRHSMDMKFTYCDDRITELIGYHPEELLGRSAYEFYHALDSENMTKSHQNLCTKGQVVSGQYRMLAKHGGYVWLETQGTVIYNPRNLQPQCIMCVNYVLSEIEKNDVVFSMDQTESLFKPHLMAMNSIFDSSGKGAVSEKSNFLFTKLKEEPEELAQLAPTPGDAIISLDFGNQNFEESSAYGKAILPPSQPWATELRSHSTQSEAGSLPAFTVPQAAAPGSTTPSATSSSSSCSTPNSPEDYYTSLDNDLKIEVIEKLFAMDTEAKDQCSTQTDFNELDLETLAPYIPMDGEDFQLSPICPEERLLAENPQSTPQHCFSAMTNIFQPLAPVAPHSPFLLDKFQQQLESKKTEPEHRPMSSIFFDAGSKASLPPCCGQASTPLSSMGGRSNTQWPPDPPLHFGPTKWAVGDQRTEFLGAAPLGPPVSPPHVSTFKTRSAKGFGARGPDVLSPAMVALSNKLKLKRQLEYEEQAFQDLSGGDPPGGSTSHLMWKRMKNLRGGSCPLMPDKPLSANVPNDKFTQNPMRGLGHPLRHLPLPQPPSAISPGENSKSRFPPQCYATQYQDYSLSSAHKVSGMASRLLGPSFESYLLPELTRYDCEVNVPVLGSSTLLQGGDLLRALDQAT
Procedure, shortened: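 786-O cells stably carrying a HIF-responsive luciferase reporter, 20,000/well in OptiMem with 1% DMSO, exposed to compound up to 50 uM for 20 h at 37 °C. ONE-Glo luminescence normalised to DMSO and no-cell controls; IC50 by four-parameter fit.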

T1 sequence (Q99814 240-350): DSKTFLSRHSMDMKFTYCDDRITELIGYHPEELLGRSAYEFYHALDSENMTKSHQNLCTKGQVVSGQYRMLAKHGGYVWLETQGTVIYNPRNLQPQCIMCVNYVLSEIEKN

| Compound | IC50 ([2]; Table 3, 20 hours incubation) [nM] | other results |
| --- | --- | --- |
| N#Cc1cc(F)cc2c1C(c1ccc(C#N)c3c1CC(F)(F)[C@H]3O)CCC2 (mixture of isomers) [Example 141, 8-[(1S)-7-cyano-2,2-difluoro-1-hydroxy-1,3-dihydroinden-4-yl]-3-fluoro-5,6,7,8-tetrahydronaphthalene-1-carbonitrile] |  | IC50 [1]: < 100 nM; IC50 ([2]; Table 2, 20 hours incubation): < 100 nM |
| N#Cc1cc(F)cc2c1[C@@H](c1ccc(C(=O)O)c3c1CC(F)(F)[C@H]3O)CC[C@@H]2F [Example 223, (3S)-7-[(1R,4S)-8-cyano-4,6-difluoro-1,2,3,4-tetrahydronaphthalen-1-yl]-2,2-difluoro-3-hydroxy-1,3-dihydroindene-4-carboxylic acid] | 100 to 1000 |  |
| CN(C)C(=O)c1ccc([C@H]2CC[C@H](F)c3cc(F)cc(C#N)c32)c2c1[C@H](O)C(F)(F)C2 [Example 224, (3S)-7-[(1R,4S)-8-cyano-4,6-difluoro-1,2,3,4-tetrahydronaphthalen-1-yl]-2,2-difluoro-3-hydroxy-N,N-dimethyl-1,3-dihydroindene-4-carboxamide] | 100 to 1000 |  |
| Cc1ncccc1-c1ncc([C@H]2CC[C@H](F)c3cc(F)cc(C#N)c32)c2c1[C@H](O)[C@H](F)C2 [Example 227, (5S,8S)-3,5-difluoro-8-[(6R,7S)-6-fluoro-7-hydroxy-1-(2-methylpyridin-3-yl)-5H16H17H-cyclopenta[c]pyridin-4-yl]-5,6,7,8-tetrahydronaphthalene-1-carbonitrile] | 100 to 1000 |  |
| N#Cc1cc(F)cc2c1[C@@H](c1ccc(-c3cccc(F)c3N)c3c1CC(F)(F)[C@H]3O)CC[C@@H]2F [Example 229, (5S,8R)-8-[(1S)-7-(2-amino-3-fluorophenyl)-2,2-difluoro-1-hydroxy-1,3-dihydroinden-4-yl]-3,5-difluoro-5,6,7,8-tetrahydronaphthalene-1-carbonitrile] | < 100 |  |
| N#Cc1cc(F)cc2c1[C@@H](c1ccc(-c3cnc4c(N)cccn34)c3c1CC(F)(F)[C@H]3O)CC[C@@H]2F [Example 230, (5S,8R)-8-[(1S)-7-(8-aminoimidazo[1,2-a]pyridin-3-yl)-2,2-difluoro-1-hydroxy-1,3-dihydroinden-4-yl]-3,5-difluoro-5,6,7,8-tetrahydronaphthalene-1-carbonitrile] | < 100 |  |
| N#Cc1cc(F)cc2c1[C@@H](c1ccc(-c3cc(F)ccc3N)c3c1CC(F)(F)[C@H]3O)CC[C@@H]2F [Example 235, (5S,8R)-8-[(1S)-7-(2-amino-5-fluorophenyl)-2,2-difluoro-1-hydroxy-1,3-dihydroinden-4-yl]-3,5-difluoro-5,6,7,8-tetrahydronaphthalene-1-carbonitrile] | < 100 |  |
| N#Cc1cc(F)cc2c1[C@@H](c1ccc(-c3c[nH]c4ncccc34)c3c1CC(F)(F)[C@H]3O)CC[C@@H]2F [Example 243, (5S,8R)-8-[(1S)-2,2-difluoro-1-hydroxy-7-{1H-pyrrolo[2,3-b]pyridin-3-yl}-2,3-dihydro-1H-inden-4-yl]-3,5-difluoro-5,6,7,8-tetrahydronaphthalene-1-carbonitrile] | 100 to 1000 |  |
| CS(=O)(=O)c1ccc([C@H]2CC[C@H](F)c3cc(F)cc(C#N)c32)c2c1[C@H](O)[C@@](F)(C#N)C2 [Example 247, (5S,8R)-8-[(1S,2S)-2-cyano-2-fluoro-1-hydroxy-7-methylsulfonyl-1,3-dihydroinden-4-yl]-3,5-difluoro-5,6,7,8-tetrahydronaphthalene-1-carbonitrile] | < 100 |  |
| CS(=O)(=O)c1ccc([C@H]2CC[C@H](F)c3cc(F)cc(C#N)c32)c2c1[C@H](O)[C@](F)(C#N)C2 [Example 248, (5S,8R)-8-[(1S,2R)-2-cyano-2-fluoro-1-hydroxy-7-methylsulfonyl-1,3-dihydroinden-4-yl]-3,5-difluoro-5,6,7,8-tetrahydronaphthalene-1-carbonitrile] | 100 to 1000 |  |

The next lines start with results.

| IC50 ([2]; Table 3, 20 hours incubation) [nM] | Compound | other results |
| --- | --- | --- |
| < 100 | Cc1ccc([C@H]2CC[C@H](F)c3cc(F)cc(C#N)c32)c2c1[C@H](O)C(F)(F)C2 [Example 225, (5S,8R)-8-[(1S)-2,2-difluoro-1-hydroxy-7-methyl-1,3-dihydroinden-4-yl]-3,5-difluoro-5,6,7,8-tetrahydronaphthalene-1-carbonitrile] |  |
| < 100 | CC(C)(O)c1ccc([C@H]2CC[C@H](F)c3cc(F)cc(C#N)c32)c2c1[C@H](O)C(F)(F)C2 [Example 226, (5S,8R)-8-[(1S)-2,2-difluoro-1-hydroxy-7-(2-hydroxypropan-2-yl)-1,3-dihydroinden-4-yl]-3,5-difluoro-5,6,7,8-tetrahydronaphthalene-1-carbonitrile] |  |
| < 100 | N#Cc1cc(F)cc2c1[C@@H](c1ccc(-c3cccc4ncoc34)c3c1CC(F)(F)[C@H]3O)CC[C@@H]2F [Example 228, (5S,8R)-8-[(1S)-7-(1,3-benzoxazol-7-yl)-2,2-difluoro-1-hydroxy-1,3-dihydroinden-4-yl]-3,5-difluoro-5,6,7,8-tetrahydronaphthalene-1-carbonitrile] |  |
| 100 to 1000 | Cc1nc2ccccn2c1-c1ccc([C@H]2CC[C@H](F)c3cc(F)cc(C#N)c32)c2c1[C@H](O)C(F)(F)C2 [Example 231, (5S,8R)-8-[(1S)-2,2-difluoro-1-hydroxy-7-(2-methylimidazo[1,2-a]pyridin-3-yl)-1,3-dihydroinden-4-yl]-3,5-difluoro-5,6,7,8-tetrahydronaphthalene-1-carbonitrile] |  |
| < 100 | Cc1ncn(C)c1-c1ccc([C@H]2CC[C@H](F)c3cc(F)cc(C#N)c32)c2c1[C@H](O)C(F)(F)C2 [Example 232, (5S,8R)-8-[(1S)-7-(3,5-dimethylimidazol-4-yl)-2,2-difluoro-1-hydroxy-1,3-dihydroinden-4-yl]-3,5-difluoro-5,6,7,8-tetrahydronaphthalene-1-carbonitrile] |  |
| 100 to 1000 | N#Cc1cc(F)cc2c1[C@@H](c1ccc(-c3cnc4ncccn34)c3c1CC(F)(F)[C@H]3O)CC[C@@H]2F [Example 233, (5S,8R)-8-[(1S)-2,2-difluoro-1-hydroxy-7-imidazo[1,2-a]pyrimidin-3-yl-1,3-dihydroinden-4-yl]-3,5-difluoro-5,6,7,8-tetrahydronaphthalene-1-carbonitrile] |  |
| < 100 | N#Cc1cc(F)cc2c1[C@@H](c1ccc(-c3cnc4cnccn34)c3c1CC(F)(F)[C@H]3O)CC[C@@H]2F [Example 234, (5S,8R)-8-[(1S)-2,2-difluoro-1-hydroxy-7-imidazo[1,2-a]pyrazin-3-yl-1,3-dihydroinden-4-yl]-3,5-difluoro-5,6,7,8-tetrahydronaphthalene-1-carbonitrile] |  |
| < 100 | Cc1ncc(-c2ccc([C@H]3CC[C@H](F)c4cc(F)cc(C#N)c43)c3c2[C@H](O)C(F)(F)C3)n1C [Example 236, (5S,8R)-8-[(1S)-7-(2,3-dimethylimidazol-4-yl)-2,2-difluoro-1-hydroxy-1,3-dihydroinden-4-yl]-3,5-difluoro-5,6,7,8-tetrahydronaphthalene-1-carbonitrile] |  |
| < 100 | N#Cc1cc(F)cc2c1[C@@H](c1ccc(-c3cnc4cccnn34)c3c1CC(F)(F)[C@H]3O)CC[C@@H]2F [Example 237, (5S,8R)-8-[(1S)-2,2-difluoro-1-hydroxy-7-imidazo[1,2-b]pyridazin-3-yl-1,3-dihydroinden-4-yl]-3,5-difluoro-5,6,7,8-tetrahydronaphthalene-1-carbonitrile] |  |
| 100 to 1000 | Cn1ccnc1-c1ccc([C@H]2CC[C@H](F)c3cc(F)cc(C#N)c32)c2c1[C@H](O)C(F)(F)C2 [Example 238, (5S,8R)-8-[(1S)-2,2-difluoro-1-hydroxy-7-(1-methylimidazol-2-yl)-1,3-dihydroinden-4-yl]-3,5-difluoro-5,6,7,8-tetrahydronaphthalene-1-carbonitrile] |  |
| < 100 | N#Cc1cc(F)cc2c1[C@@H](c1ccc(-c3cnc4ccccn34)c3c1CC(F)(F)[C@H]3O)CC[C@@H]2F [Example 239, (5S,8R)-8-[(1S)-2,2-difluoro-1-hydroxy-7-imidazo[1,2-a]pyridin-3-yl-1,3-dihydroinden-4-yl]-3,5-difluoro-5,6,7,8-tetrahydronaphthalene-1-carbonitrile] |  |
| < 100 | Cc1cccnc1-c1ccc([C@H]2CC[C@H](F)c3cc(F)cc(C#N)c32)c2c1[C@H](O)C(F)(F)C2 [Example 244, (5S,8R)-8-[(1S)-2,2-difluoro-1-hydroxy-7-(3-methylpyridin-2-yl)-2,3-dihydro-1H-inden-4-yl]-3,5-difluoro-5,6,7,8-tetrahydronaphthalene-1-carbonitrile] |  |
| 100 to 1000 | N#Cc1cc(F)cc2c1[C@@H](c1ccc(-c3cccn4ccnc34)c3c1CC(F)(F)[C@H]3O)CC[C@@H]2F [Example 245, (5S,8R)-8-[(1S)-2,2-difluoro-1-hydroxy-7-{imidazo[1,2-a]pyridin-8-yl}-2,3-dihydro-1H-inden-4-yl]-3,5-difluoro-5,6,7,8-tetrahydronaphthalene-1-carbonitrile] |  |
